PMC9964319, “Half-Sandwich Rhodium Complexes with Releasable N-Donor Monodentate Ligands: Solution Chemical Properties and the Possibility for Acidosis Activation” (Pharmaceutics, 2023)

Columns and labels:
[1] = Fractions of mixed-ligand complexes at 1:1 ratio at pH 6.0 and 7.4 by 1H NMR (screening of monodentate ligands); type: physicochemical; settings: pH 6.0 and 7.4
Method: In the preliminary studies, the co-ordination ability of the monodentate ligands to the [RhCp*(en)(H2O)]^2+, [RhCp*(phen)(H2O)]^2+, and [RhCp*(8HQH-1)(H2O)]^+ complexes was tested (Chart 2). The samples contained the aqua complex and the monodentate ligand in a 1:1 ratio and were buffered at pH = 6.0 and pH = 7.4. For an ideal drug candidate, all of the monodentate ligand would be bound at pH 7.4; thus, the mixed-ligand complex would be present exclusively, which dissociates completely at pH 6.0.
Figure 1 Fractions of the formed mixed-ligand [RhCp*(N,N/O)(N)]^2+/+ complexes at c(complex):c(monodentate ligand) = 1:1 ratio measured at pH = 6.0 (full bars) and 7.4 (checkered bars). Fractions were determined by the integration of the peaks in the ^1H NMR spectra. The percentage values above the columns show the difference in the fractions of the mixed-ligand complex at the two pH values. {c([RhCp*(phen)(H2O)]^2+) = c([RhCp*(en)(H2O)]^2+) = 1 mM; c([RhCp*(8HQH−1)(H2O)]^+) = 500 μM; 10% D2O; pH = 6.0 or 7.4 (PBS’); t = 25.0 °C}. […] The percentages were assigned to (N,N) = en, (N,N) = phen and (N,O) = 8HQH-1 by bar colour only.

[2] = I = 0.10 M (KCl); t = 25.0 °C; pH-potentiometry (benzimidazole: UV-vis)
Method: pH-potentiometric measurements were performed to determine the protonation constants (Kp) of the ligands and the concentration of the stock solutions. These measurements were carried out at 25.0 ± 0.1 °C in water in a pH range between 2.0 and 11.5, titrating with carbonate-free KOH solution (0.10 M). […] A Thermo Scientific 0710A0 benchtop pH meter (Waltham, MA, USA), equipped with a Metrohm combined electrode (type 6.0234.100) and a Metrohm 665 Dosimat burette (Metrohm, Herisau, Switzerland) was used for these measurements. […] The initial volume of the samples was 10.0 mL, and the ligand concentration was 2.0 mM in the samples. Samples were degassed by bubbling purified argon prior to and during the measurements. The computer program Hyperquad2013 [28] was utilized to determine the protonation constants of the ligands and concentration.
The protonation constants (Kp) were determined by pH-potentiometric and UV-vis spectrophotometric titrations in the presence of 0.1 M KCl (see Table 1 and Figures S21 and S22 for examples).

[3] = cited from earlier work
testicular tumors = tested on: testicular tumors; parameters: method as in doi:10.2174/2210298102666220404102936; settings: cited from earlier work

Row | Compound | interaction (co-ordination) with the RhCp* aqua complexes [1] | logKp (= pKa) [2] | logKp (= pKa), literature data [3] | cure rates (testicular tumors)
1 | CN [methylamine] | no interaction was found | 10.58 ± 0.03 | 10.51 [47] | –
2 | N.N.[Cl][Pt][Cl] [Cisplatin] | – | – | – | above 95%
